Source: patent publication US20050070594A1, “Use of angiotensin II receptor antagonists” (Boehringer Ingelheim International GmbH, priority 2003, published 2005)

Columns and labels:
PPARgamma = molecular target: T1, PPARgamma (Homo sapiens, UniProt P37231); experiment: Transcription reporter assay (PPRE-luciferase) in AT1-receptor-deficient PC12W cells; assay type: cell-based; conditions: 10 μmol/L
T1 construct: expressed in transfected cells; host or cells: PC12W cells (AT1-receptor-deficient), transient transfection
T1 sequence (P37231 1-505): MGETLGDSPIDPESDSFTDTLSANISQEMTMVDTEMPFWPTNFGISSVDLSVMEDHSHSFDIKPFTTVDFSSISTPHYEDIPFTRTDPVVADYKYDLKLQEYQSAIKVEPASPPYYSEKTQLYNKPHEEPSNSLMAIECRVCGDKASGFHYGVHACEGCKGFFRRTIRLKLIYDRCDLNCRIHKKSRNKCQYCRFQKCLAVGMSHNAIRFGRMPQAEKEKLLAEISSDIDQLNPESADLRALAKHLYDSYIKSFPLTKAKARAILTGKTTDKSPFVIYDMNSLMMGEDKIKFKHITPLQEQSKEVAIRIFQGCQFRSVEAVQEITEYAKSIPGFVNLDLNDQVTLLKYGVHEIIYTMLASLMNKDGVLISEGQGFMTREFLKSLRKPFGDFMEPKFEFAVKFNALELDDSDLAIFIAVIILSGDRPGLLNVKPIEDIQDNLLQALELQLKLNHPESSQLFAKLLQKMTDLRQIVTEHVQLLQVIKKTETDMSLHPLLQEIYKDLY
T1 sequence (P19793 1-462 partner): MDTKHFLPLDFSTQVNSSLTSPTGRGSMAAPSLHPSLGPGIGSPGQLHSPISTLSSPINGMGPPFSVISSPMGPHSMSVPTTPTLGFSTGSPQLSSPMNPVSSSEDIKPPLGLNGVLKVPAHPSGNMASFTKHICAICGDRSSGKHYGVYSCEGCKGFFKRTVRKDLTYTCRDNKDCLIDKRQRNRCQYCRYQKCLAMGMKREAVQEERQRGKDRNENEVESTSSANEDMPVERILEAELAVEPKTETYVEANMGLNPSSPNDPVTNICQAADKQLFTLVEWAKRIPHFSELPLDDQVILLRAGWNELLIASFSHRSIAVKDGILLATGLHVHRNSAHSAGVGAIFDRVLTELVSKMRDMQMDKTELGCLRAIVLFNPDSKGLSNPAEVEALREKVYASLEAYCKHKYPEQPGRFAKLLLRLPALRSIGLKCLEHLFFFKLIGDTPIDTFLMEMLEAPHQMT
Protocol: 3T3-L1 adipocytes (day 4) or PC12W cells are transfected with Lipofectamine 2000 (Invitrogen) in the presence of 1 μg (for 3T3-L1 cells) or 50 ng (for PC12W cells) of a reporter construct, PPARgamma2 and RXRalpha expression vectors and 10 ng of a Renilla Luciferase Reporter control vector. The reporter construct is a fusion of 3xAcyl-CoA oxidase PPAR Response Element (PPRE) with Tk-luciferase. […] The Luciferase Reporter control vector is the plasmid pRL-CMV (Promega).
PC12W cells are AT1-receptor-deficient.

[1] = molecular target: T2, human PPARgamma-ligand binding domain (LBD) (Homo sapiens, UniProt P37231); experiment: AlphaScreen: recruiting of biotinylated LXXLL peptide of cofactor CBP to GST-PPARgamma-LBD; assay type: biochemical
T2 construct: codes for the amino acids 205-505 of the human PPARgamma2 transcription factor; made in house; host or cells: E. coli BL21(DE3), vector pGEX-4T-1
T2 sequence (P37231 205-505): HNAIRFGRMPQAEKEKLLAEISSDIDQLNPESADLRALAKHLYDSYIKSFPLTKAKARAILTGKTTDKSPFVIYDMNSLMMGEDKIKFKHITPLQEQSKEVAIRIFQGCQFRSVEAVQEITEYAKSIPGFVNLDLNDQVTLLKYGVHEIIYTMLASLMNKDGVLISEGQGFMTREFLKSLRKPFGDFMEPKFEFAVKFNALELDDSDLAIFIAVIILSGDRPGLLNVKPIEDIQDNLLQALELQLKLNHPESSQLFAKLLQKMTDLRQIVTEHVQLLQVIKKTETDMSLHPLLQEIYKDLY
Protocol: Protein containing the human PPARgamma-ligand binding domain (LBD) is prepared as a GST fusion protein in E.coli and purified by affinity chromatography. […] The fusion protein is expressed in the E.coli strain BL21(DE3) recommended for pGEX vectors after induction with 0.2 mM IPTG for 4 hours at 25° C. The bacteria are pelleted after the induction and frozen in batches in PBS, pH 7.4. After opening up in a French Press, the dissolved GST-PPARgamma-LBD-fusion protein is purified using a GSTrap column (Pharmacia). Elution is carried out by the addition of 20 mM reduced glutathione.
The GST-PPARgamma-LBD-protein fractions are desalinated using a HiTrap desalting column (Pharmacia) and the protein concentration is determined using a standard assay.
The assay buffer consists of 25 mM Hepes pH7.4, 100 mM NaCl,1 mM DTT, 0.1% Tween-20, 0.1% BSA. […] The final DMSO concentration in the assay is 1% (v/v). A 1% DMSO solution is used as the background control (NSB). The measurement is done using a Packard fusion measuring device.

[2] = molecular target: T3, ligand binding domain of the human PPARgamma2 transcription factor (Gal4 DNA binding domain fusion) (Homo sapiens, UniProt P37231); experiment: Luciferase activity in stably transformed PPARgamma reporter cell line (CHO-K1 clone 11); assay type: cell-based; conditions: 24 hours
T3 construct: codes for amino acids 205-505 of the human PPARgamma2 transcription factor; expressed in transfected cells
T3 sequence (P37231 205-505): T2 sequence (P37231 205-505)
Protocol: The resulting plasmid pFA-CMV/hPPARgamma2-LBD codes N-terminally of the PPARgamma-LBD in the same reading frame for a Gal4 DNA binding domain. In addition the plasmid codes for a neomycin resistance.
The cell line CHO-K1 (ATCC CCL-61) is cotransfected with the plasmids pFA-CMV/hPPARgamma2-LBD and pFR-Luc (Stratagene). pFR-Luc codes for the luciferase gene under the control of a five-times repeated yeast Gal4 binding site. The transfection is carried out with lipofectamine2000 in accordance with the manufacturer's instructions.
After six days' cultivation the cells are passaged and kept in culture for another 10 days. The resulting neomycin-resistant colonies are picked out under the microscope and transferred into 96 well-dishes and cultured.
The test substances are brought to 100 times the desired concentration with a suitable solvent, e.g. DMSO, and diluted 1:100 with the medium placed in the cell culture plate. The solvent used, e.g. DMSO, is used as the background control in the same concentration.
Luminescence is measured after a five minute wait using a Packard TopCount NXT. The luciferase activity is obtained by integrating the relative luciferase units (RLU) of the first ten seconds after the start of measurement.

CCCc1nc2c(C)cc(-c3nc4ccccc4n3C)cc2n1Cc1ccc(-c2ccccc2C(=O)O)cc1 [telmisartan]
regulation of the PPARgamma activity (PPARgamma; PC12W cells in the absence of exogenous PPARgamma2/RXRalpha): no regulation | induction of PPARgamma activity, factor (PPARgamma; PC12W cells overexpressing PPARgamma2/RXRalpha): 1.9±0.4 | AlphaScreen signal (MW) ([1]; 1.00E−05 M test substance): 847 | AlphaScreen signal (MW) ([1]; 1.00E−06 M test substance): 677 | AlphaScreen signal (MW) ([1]; 1.00E−07 M test substance): 606 | AlphaScreen signal (MW) ([1]; 3.00E−06 M test substance): 720 | AlphaScreen signal (MW) ([1]; 3.00E−07 M test substance): 644 | AlphaScreen signal (MW) ([1]; 3.00E−08 M test substance): 642 | AlphaScreen signal (MW) ([1]; 5.00E−05 M test substance): 1111 | direct activation of the PPARgamma-LBD / recruiting of the LXXLL peptide ([1]; concentrations of up to 50 μM): does not result in any direct activation | luciferase activity (MW) ([2]; 1.00E−05 M): 61397 RLU | luciferase activity (MW) ([2]; 1.00E−06 M): 2859 RLU | luciferase activity (MW) ([2]; 3.00E−05 M): 58790 RLU | luciferase activity (MW) ([2]; 3.00E−06 M): 24498 RLU | luciferase activity (MW) ([2]; 3.00E−07 M): 760 RLU
